Publication PMC6412019, “Discovery of NV-5138, the first selective Brain mTORC1 activator” (Scientific Reports, 2019)

How the values were obtained:
Sestrin2 = biological target: T1, Sestrin2 (Homo sapiens, UniProt P58004); assay: Thermal shift assay of purified Sestrin2; assay type: binding; design: Full-length, codon-optimized human Sestrin2 was cloned into a pMAL6H -C5XT bacterial expression vector; His6-MBP (TEV-cleavable) (N, cleaved yes); made in house; host or cells: Escherichia coli LOBSTR (DE3); settings: average +/- SD, n = 3, read-out: Average Tm shift; for ΔTm at 1 µM: compound concentration 1 µM; for ΔTm at 10 µM: compound concentration 10 µM; for ΔTm at 100 µM: compound concentration 100 µM
T1 sequence (P58004 1-480): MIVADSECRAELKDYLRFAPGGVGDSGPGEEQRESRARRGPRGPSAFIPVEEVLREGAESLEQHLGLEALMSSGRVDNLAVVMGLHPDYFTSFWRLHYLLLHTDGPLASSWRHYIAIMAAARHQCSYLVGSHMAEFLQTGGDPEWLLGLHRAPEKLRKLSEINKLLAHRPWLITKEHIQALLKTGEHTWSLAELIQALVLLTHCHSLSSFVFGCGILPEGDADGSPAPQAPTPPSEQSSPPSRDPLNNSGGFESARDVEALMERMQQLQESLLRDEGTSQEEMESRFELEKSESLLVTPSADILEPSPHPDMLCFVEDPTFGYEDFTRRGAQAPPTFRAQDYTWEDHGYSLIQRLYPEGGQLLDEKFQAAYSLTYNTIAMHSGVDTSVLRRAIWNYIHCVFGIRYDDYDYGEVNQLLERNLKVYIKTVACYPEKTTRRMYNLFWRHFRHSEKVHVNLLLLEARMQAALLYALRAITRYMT
Protocol: Accordingly, we synthesized novel binding ligands incorporating these structural features. These compounds were tested for Sestrin2 binding using a thermal shift assay and for their ability to activate mTORC1 in leucine-starved Human Embryonic Kidney (HEK)-293T cells. These studies led to the identification of NV-5138 – a novel small molecule activator of mTORC1 signaling (Fig. 1a).
Full-length, codon-optimized human Sestrin2 was cloned into a pMAL6H -C5XT bacterial expression vector. Protein was purified onto a HisTrap FF crude column (GE Healthcare) followed by anion exchange chromatography then further purified via size-exclusion chromatography. Further details can be found in Supplementary Information.
Full-length, codon-optimized human Sestrin2 was cloned into a pMAL6H -C5XT bacterial expression vector such that Sestrin2 became N-terminally fused with a Tobacco Etch Virus nuclear-inclusion-a endopeptidase (TEV)–cleavable His6-MBP tag. This vector was transformed into Escherichia coli LOBSTR (DE3) cells (Kerafast) ^1. Cells were grown at 37 °C to 0.6 OD, then protein production was induced with 0.2 mM IPTG at 18 °C for 12–14 h. Cells were collected by centrifugation at 6,000g, resuspended in lysis buffer (50 mM Tris-HCl, pH 8.5, 400 mM NaCl, 5 mM MgCl2, 1 mM dithiothreitol (DTT), 0.2% CHAPS, 10% glycerol and 1 tablet of protease inhibitor tablets per 50 ml (Complete Inhibitor tablets from Roche w/o EDTA)), homogenized and sonicated. The lysate was cleared by centrifugation at 15,000g for 45 min. The soluble fraction (~250 ml) was loaded onto a HisTrap FF crude column (GE Healthcare) at 2 ml/min followed by washing with lysis buffer at 4 ml/min. After washing, the protein was eluted in lysis buffer containing 300 mM imidazole at 4 ml/min. Fractions corresponding to the Sestrin2 protein were identified via SDS-PAGE and pooled. The eluted Sestrin2 was then incubated with TEV protease and dialyzed overnight at 4 °C into 50 mM Tris-HCl, pH 8.5, 400 mM NaCl, 5 mM MgCl2, 1 mM dithiothreitol (DTT), 0.1% CHAPS, 10% glycerol. To separate the N-terminal tag from the cleaved Sesrin2, from cleaved sample was then re-applied to the HisTrap FF crude column and flow-through collected. The protein was then subjected to anion exchange chromatography on an 8ml Mono Q column (GE Healthcare) with a linear NaCl gradient and then further purified via size-exclusion chromatography on a Superdex S200 26/60 column (GE Healthcare) equilibrated in running buffer (50 mM Hepes pH 7.4, 200 mM NaCl, 1 mM DTT, 2.5 mM MgCl2, and 5% glycerol).

mTORC1 = mTORC1 activation (phosphorylated S6K1 Thr389 immunoblot) in leucine-starved HEK-293T cells; assay type: cell-based, human
Protocol: Expression of flag-WDR24 allows for immunoprecipitation of the Sestrin2/GATOR2 complex from amino acid-starved cells with an anti-flag antibody. […] Finally, to determine whether Sestrins and the GATOR pathway are required for NV-5138 activity, HEK-293T cells null for all three Sestrin isoforms or the GATOR1 component Nprl3 were obtained.
All cell lines were cultured in DMEM supplemented with 10% FBS and maintained at 37 °C and 5% CO2. HEK-293T cells stably expressing Flag-WDR24 was generated as previously described. […] Details of reagent used for cell culture can be found in Supplementary Information.
Cell lysates were prepared as previously described. Lysates were cleared by centrifugation at 13,200 rpm at 4 °C for 8 min. For anti-FLAG IPs, the FLAG-M2 affinity gel was added to approximately 2 mg of lysates and incubated with rotation for 3 h at 4 °C. Following IP, the beads were washed one time with Triton wash buffer containing 500 mM NaCl. […] After compound incubation, IPs were collected by centrifugation. Immunoprecipitated proteins were denatured and, resolved by SDS-PAGE. Membranes were imaged using the LI-COR imaging system. Reagents and antibodies used are listed in Supplementary Information.

Compound | ΔTm at 1 µM (Sestrin2) | ΔTm at 10 µM (Sestrin2) | ΔTm at 100 µM (Sestrin2) | mTORC1 activation (pS6K1) (mTORC1; leucine-starved HEK-293T cells null for all three Sestrin isoforms) | mTORC1 activation (pS6K1) (mTORC1; leucine-starved HEK-293T cells null for the GATOR1 component Nprl3) | mTORC1 activation (pS6K1) (mTORC1; leucine-starved unedited HEK-293T cells)
CC(C)C[C@H](N)C(=O)O [Leucine, L-leucine, reference compound] | 0.61 ± 0.59 °C | 3.64 ± 0.41 °C | 6.49 ± 0.2 °C | refractory | refractory | –
CC(C)(C[C@H](N)C(=O)O)C(F)F [NV-5138, (S)-2-amino-5,5-difluoro-4,4-dimethylpentanoic acid] | 0.57 ± 0.22 °C | 3.27 ± 0.16 °C | 6.17 ± 0.18 °C | – | – | activates mTORC1
